US12139486B2, “Octahydro fused azadecalin glucocorticoid receptor modulators” (Corcept Therapeutics, Inc., priority 2013, dated 2024)

Columns and labels:
[1] = target: T1, human recombinant GR (Homo sapiens, UniProt P04150); assay: Human Glucocorticoid Receptor (GR) Fluorescence Polarisation (FP) Binding Assay; conditions: Ki from IC50 by ligand depletion correction; displacement of Fluorome GS Red
T1 construct: purchased PanVera P2812
T1 sequence (P04150 1-777): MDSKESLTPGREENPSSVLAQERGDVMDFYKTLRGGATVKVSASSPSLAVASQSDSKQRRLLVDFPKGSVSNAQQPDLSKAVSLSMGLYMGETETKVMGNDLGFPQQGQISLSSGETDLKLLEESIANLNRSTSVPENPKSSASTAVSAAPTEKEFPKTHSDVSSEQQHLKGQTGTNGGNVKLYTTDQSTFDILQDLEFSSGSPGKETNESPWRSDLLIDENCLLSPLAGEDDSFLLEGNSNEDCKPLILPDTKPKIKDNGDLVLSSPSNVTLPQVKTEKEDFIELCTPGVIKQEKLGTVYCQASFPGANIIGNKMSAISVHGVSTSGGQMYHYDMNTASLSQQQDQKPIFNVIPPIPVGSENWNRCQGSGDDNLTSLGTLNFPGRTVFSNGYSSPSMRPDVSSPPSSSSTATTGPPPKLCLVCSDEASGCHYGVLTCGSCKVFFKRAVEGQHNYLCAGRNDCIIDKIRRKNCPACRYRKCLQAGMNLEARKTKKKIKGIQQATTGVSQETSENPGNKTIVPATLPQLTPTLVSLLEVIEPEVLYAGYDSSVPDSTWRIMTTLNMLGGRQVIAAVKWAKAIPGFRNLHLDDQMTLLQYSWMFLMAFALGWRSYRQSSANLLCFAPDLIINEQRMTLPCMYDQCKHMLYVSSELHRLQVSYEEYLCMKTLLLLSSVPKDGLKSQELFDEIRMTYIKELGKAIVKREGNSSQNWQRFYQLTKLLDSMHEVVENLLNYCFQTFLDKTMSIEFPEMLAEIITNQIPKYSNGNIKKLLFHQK
Protocol: The following is a description of a FP assay for measuring compound inhibition of labelled glucocorticoid binding to the human recombinant GR.
The binding affinity of test compounds was determined using a FP binding assay using human recombinant GR (PanVera P2812) and a fluorescent labelled glucocorticoid ligand (Fluorome GS Red) (PanVera P2894). The presence of inhibitors prevents the formation of a GS Red/GR complex resulting in a decrease in the measured polarisation value. The change in polarisation value in the presence of test compounds is used to calculate the binding affinity of the compound for GR.
This assay was performed in 384 well, black, round-bottom, polypropylene micro titre plates in a final volume of 20 μl. The assay contained 5 μl 1 nM GR (final concentration), 5 μl 0.5 nM Fluorome GS Red (final concentration) in the presence of 10p test compounds. Positive control wells (high polarisation) receive, 10 μl 2% (v:v) DMSO vehicle (1% (v/v) final concentration)+5 μl 1 nM GR and 5 μl 0.5 nM Fluorome GS Red. […] Assay blank background wells (used for normalisation) receive 15 μl 1×GS screening buffer+5 μl GR.
For the IC50 determination (concentration of compound that displaces 50% of the bound GS Red), compounds were tested at eight different concentrations in duplicate in two independently performed experiments. Compounds were prepared as solubilised solids at 10 mM in DMSO. On the day of assay, an 8 point half-log serial dilution (55 μl DMSO+25 μl compound solution) was prepared. A 1:50 dilution (1 μl compound solution+49 μl 1×GR screening buffer) was prepared for each compound. The compounds were prepared at 2× final assay concentration.
The plates were mixed and incubated for 4 hour at room temperature. FP was measured using an Envision Excite plate reader with 535 nm excitation and 590 nm emission interference filters.
Milli-polarisation (mP) values were calculated using the below equation: mP=1000*(S−G*P)/(S+G*P) where S and P are assay blank background subtracted fluorescence units, G=G-factor (1.07).
Compound IC50 values were calculated by plotting a [compound] v. % inhibition curve and fitting the data to a 4-parameter logistic fit equation.
10×GR screening buffer (100 mM potassium phosphate pH 7.4, 200 mM Na2MoO4, 1 mM EDTA, 20% (v/v) DMSO). To prepare 1×GR screening buffer, combine 1 ml 10×GR screening buffer (PanVera P2814)+1 ml stabilising peptide (PanVera P2815)+7.95 ml 4° C. MQ water. Add 50p 1M DTT, vortex and place on ice until use.

[2] = target: T2, glucocorticoid receptor (Homo sapiens, UniProt P04150); assay: HepG2 Tyrosine Aminotransferase (TAT) Assay; type: cell-based
T2 construct: endogenous in cells; host or cells: HepG2
T2 sequence (P04150 1-777): T1 sequence (P04150 1-777)
Protocol: Glucocorticoid mediated activation of TAT occurs by transactivation of glucocorticoid response elements in the TAT promoter by glucocorticoid receptor-agonist complex.
HepG2 cells were cultured using MEME media supplemented with 10% (v/v) foetal bovine serum; 2 mM L-glutamine and 1% (v/v) NEAA at 37° C., 5%/95% (v/v) CO2/air.
Compounds were serially half log diluted in 100% (v/v) dimethylsulphoxide from a 10 mM stock.
HepG2 cells were then lysed with 30 μl of cell lysis buffer containing a protease inhibitor cocktail for 15 minutes at 4° C. […] After 2 hours incubation at 37° C. the reaction was terminated by the addition of 15 μl of 10 M aqueous potassium hydroxide solution, and the plates incubated for a further 30 minutes at 37° C.
[compound] and fitting the data to a 4 parameter logistic equation.

Row | SMILES | Ki [1] | Ki [2]
1 | Cn1cc(S(=O)(=O)N2CC[C@H]3Cc4c(cnn4-c4ccc(F)cc4)C[C@]3(C(=O)c3cc(C(F)(F)F)ccn3)C2)cn1 [Example 2H, ((4aR,8aS)-1-(4-fluorophenyl)-6-((1-methyl-1H-pyrazol-4-yl)sulfonyl)-4,4a,5,6,7,8,8a,9-octahydro-1H-pyrazolo[3,4-g]isoquinolin-4a-yl)(4-(trifluoromethyl)pyridin-2-yl)methanone] | > 0.001 µM | 0.02 to 0.1 µM
2 | Cn1ncc(S(=O)(=O)N2CC[C@H]3Cc4c(cnn4-c4ccc(F)cc4)C[C@]3(C(=O)c3cc(C(F)(F)F)ccn3)C2)n1 [Example 2C, ((4aR,8aS)-1-(4-fluorophenyl)-6-((2-methyl-2H-1,2,3-triazol-4-yl)sulfonyl)-4,4a,5,6,7,8,8a,9-octahydro-1H-pyrazolo[3,4-g]isoquinolin-4a-yl)(4-(trifluoromethyl)pyridin-2-yl)methanone] | 0.0005 to 0.001 µM | < 0.02 µM
3 | O=C(c1nccs1)[C@]12Cc3cnn(-c4ccc(F)cc4)c3C[C@@H]1CCN(S(=O)(=O)c1cccc(C(F)(F)F)n1)C2 [Example 2AG, ((4aR,8aS)-1-(4-fluorophenyl)-6-((6-(trifluoromethyl)pyridin-2-yl)sulfonyl)-4,4a,5,6,7,8,8a,9-octahydro-1H-pyrazolo[3,4-g]isoquinolin-4a-yl)(thiazol-2-yl)methanone] | 0.0005 to 0.001 µM | 0.02 to 0.1 µM
4 | CC(C)n1ncc(S(=O)(=O)N2CC[C@H]3Cc4c(cnn4-c4ccc(F)cc4)C[C@]3(C(=O)c3cc(C(F)(F)F)ccn3)C2)n1 [Example 2AD, ((4aR,8aS)-1-(4-fluorophenyl)-6-((2-isopropyl-2H-1,2,3-triazol-4-yl)sulfonyl)-4,4a,5,6,7,8,8a,9-octahydro-1H-pyrazolo[3,4-g]isoquinolin-4a-yl)(4-(trifluoromethyl)pyridin-2-yl)methanone] | < 0.0005 µM | < 0.02 µM
5 | Cn1ncc(S(=O)(=O)N2CC[C@H]3Cc4c(cnn4-c4ccc(F)cc4)C[C@]3(C(=O)c3ccccn3)C2)n1 [Example 2AC, ((4aR,8aS)-1-(4-fluorophenyl)-6-((2-methyl-2H-1,2,3-triazol-4-yl)sulfonyl)-4,4a,5,6,7,8,8a,9-octahydro-1H-pyrazolo[3,4-g]isoquinolin-4a-yl)(pyridin-2-yl)methanone] | > 0.001 µM | 0.02 to 0.1 µM

Results, then the molecule that gave them:

Row | Ki [1] | Ki [2] | SMILES
6 | > 0.001 µM | 0.02 to 0.1 µM | Cn1nccc1S(=O)(=O)N1CC[C@H]2Cc3c(cnn3-c3ccc(F)cc3)C[C@]2(C(=O)c2cc(C(F)(F)F)ccn2)C1 [Example 2J, ((4aR,8aS)-1-(4-fluorophenyl)-6-((1-methyl-1H-pyrazol-5-yl)sulfonyl)-4,4a,5,6,7,8,8a,9-octahydro-1H-pyrazolo[3,4-g]isoquinolin-4a-yl)(4-(trifluoromethyl)pyridin-2-yl)methanone]
7 | > 0.001 µM | > 0.1 µM | Cn1nncc1S(=O)(=O)N1CC[C@H]2Cc3c(cnn3-c3ccc(F)cc3)C[C@]2(C(=O)c2cc(C(F)(F)F)ccn2)C1 [Example 2X, ((4aR,8aS)-1-(4-fluorophenyl)-6-((1-methyl-1H-1,2,3-triazol-5-yl)sulfonyl)-4,4a,5,6,7,8,8a,9-octahydro-1H-pyrazolo[3,4-g]isoquinolin-4a-yl)(4-(trifluoromethyl)pyridin-2-yl)methanone]
8 | > 0.001 µM | 0.02 to 0.1 µM | O=C(c1nccs1)[C@]12Cc3cnn(-c4ccc(F)cc4)c3C[C@@H]1CCN(S(=O)(=O)c1ccc(C(F)(F)F)cc1)C2 [Example 2M, ((4aR,8aS)-1-(4-fluorophenyl)-6-((4-(trifluoromethyl)phenyl)sulfonyl)-4,4a,5,6,7,8,8a,9-octahydro-1H-pyrazolo[3,4-g]isoquinolin-4a-yl)(thiazol-2-yl)methanone]
9 | < 0.0005 µM | 0.02 to 0.1 µM | CC(C)n1ncc(S(=O)(=O)N2CC[C@H]3Cc4c(cnn4-c4ccc(F)cc4)C[C@]3(C(=O)c3nccs3)C2)n1 [Example 2Z, ((4aR,8aS)-1-(4-fluorophenyl)-6-((2-isopropyl-2H-1,2,3-triazol-4-yl)sulfonyl)-4,4a,5,6,7,8,8a,9-octahydro-1H-pyrazolo[3,4-g]isoquinolin-4a-yl)(thiazol-2-yl)methanone]
10 | 0.0005 to 0.001 µM | < 0.02 µM | CCn1ncc(S(=O)(=O)N2CC[C@H]3Cc4c(cnn4-c4ccc(F)cc4)C[C@]3(C(=O)c3cc(C(F)(F)F)ccn3)C2)n1 [Example 2O, ((4aR,8aS)-6-((2-ethyl-2H-1,2,3-triazol-4-yl)sulfonyl)-1-(4-fluorophenyl)-4,4a,5,6,7,8,8a,9-octahydro-1H-pyrazolo[3,4-g]isoquinolin-4a-yl)(4-(trifluoromethyl)pyridin-2-yl)methanone]
